What was measured:
Mtb H37Rv [1] = assay: MIC90 against nonreplicating (NR, 4-stress) Mtb H37Rv, with or without clavulanate; type: cell-based, Mycobacterium tuberculosis; details: 4-stress nonreplicating, Table S4; for Mtb H37Rv NR + CLAV (MIC90): clavulanate 4 μg/mL; for Mtb H37Rv NR (MIC90): no clavulanate
P. aeruginosa = assay: Microbial spectrum, P. aeruginosa; type: cell-based, Pseudomonas aeruginosa; details: clavulanate 4 μg/mL; Table S4
E. coli = assay: Microbial spectrum, E. coli; type: cell-based, Escherichia coli; details: clavulanate 4 μg/mL; Table S4
Mtb H37Rv [2] = assay: MIC90 against replicating (R) Mtb H37Rv, with or without clavulanate; type: cell-based, Mycobacterium tuberculosis; details: Table S4; for Mtb H37Rv R + CLAV (MIC90): clavulanate 4 μg/mL; for Mtb H37Rv R (MIC90): no clavulanate
S. aureus = assay: Microbial spectrum, S. aureus; type: cell-based, Staphylococcus aureus; details: clavulanate 4 μg/mL; Table S4
C. albicans = assay: Microbial spectrum, C. albicans; type: cell-based, Candida albicans; details: no clavulanate; Table S4

| SMILES | Mtb H37Rv NR + CLAV (MIC90) (Mtb H37Rv [1]) | Mtb H37Rv NR (MIC90) (Mtb H37Rv [1]) | P.aeruginosa R + CLAV (MIC90) (P. aeruginosa) | E.coli R + CLAV (MIC90) (E. coli) | Mtb H37Rv R + CLAV (MIC90) (Mtb H37Rv [2]) | Mtb H37Rv R (MIC90) (Mtb H37Rv [2]) | S.aureus R + CLAV (MIC90) (S. aureus) | C.albicans R (MIC90) (C. albicans) |
| --- | --- | --- | --- | --- | --- | --- | --- | --- |
| Cc1nnc(SCC2=C(C(=O)O)N3C(=O)[C@@H](NC(=O)Cc4sc(=O)sc4C)[C@H]3SC2)s1 [TBBL-0000330] | > 100 µM | > 100 µM | > 100 µM | > 100 µM | 2.8 µM | 27.6 µM | > 100 µM | > 100 µM |
| Cn1nnnc1SCC1=C(C(=O)O)N2C(=O)[C@@H](NC(=O)Cc3ccc(C4=NCCN4)cc3)[C@H]2SC1 [TBBL-0000323] | > 100 µM | > 100 µM | > 100 µM | 14 µM | 0.8 µM | 31.9 µM | 1.8 µM | > 100 µM |
| Cc1nnc(SCC2=C(C(=O)O)N3C(=O)[C@@H](NC(=O)CSc4cc(Cl)ccc4Cl)[C@H]3SC2)s1 [TBBL-0000415] | > 100 µM | > 100 µM | > 100 µM | 22.7 µM | 1.6 µM | 22.9 µM | < 0.1 µM | > 100 µM |
| O=C(Cc1cccs1)N[C@@H]1C(=O)N2C(C(=O)O)=C(C[n+]3ccccn3)CS[C@H]12 [TBBL-0000466] | > 100 µM | > 100 µM | > 100 µM | 35.1 µM | 1.8 µM | 39 µM | 0.5 µM | > 100 µM |
| C=CCn1nnnc1SCC1=C(C(=O)O)N2C(=O)[C@@H](NC(=O)Cc3ccc(C4=NCCN4)cc3)[C@H]2SC1 [TBBL-0000312] | > 100 µM | > 100 µM | > 100 µM | > 100 µM | 0.8 µM | 22.1 µM | 1.1 µM | > 100 µM |
| CC(=O)OCC1=C(C(=O)O)N2C(=O)[C@@H](NC(=O)CSc3nc4ccccc4s3)[C@H]2SC1 [TBBL-0000010] | > 100 µM | > 100 µM | > 100 µM | > 100 µM | 3.9 µM | 62 µM | 0.2 µM | > 100 µM |
| O=C(Cn1cnnn1)N[C@@H]1C(=O)N2C(C(=O)O)=C(CSc3cccc[n+]3[O-])CS[C@H]12 [TBBL-0000002] | 3 µM | 4.4 µM | > 100 µM | 15.3 µM | 5.8 µM | 5.7 µM | 3.7 µM | > 100 µM |
| CC1=C(C(=O)O)N2C(=O)[C@@H](NC(=O)CSc3ccc(C(=N)N)cc3)[C@H]2SC1 [TBBL-0000328] | > 100 µM | > 100 µM | > 100 µM | > 100 µM | 1.4 µM | 64.1 µM | 12.9 µM | > 100 µM |
| O=C(Cc1csc(=O)s1)N[C@@H]1C(=O)N2C(C(=O)O)=C(CSc3nnnn3CCO)CS[C@H]12 [TBBL-0000305] | > 100 µM | > 100 µM | > 100 µM | 7.5 µM | 2.1 µM | 40.7 µM | > 100 µM | > 100 µM |
| Cn1nnnc1SCC1=C(C(=O)O)N2C(=O)[C@@H](NC(=O)CSc3cc(Cl)ccc3Cl)[C@H]2SC1 [TBBL-0000446] | > 100 µM | > 100 µM | > 100 µM | 13.3 µM | 1.5 µM | 20.7 µM | < 0.1 µM | > 100 µM |
| CCn1nnnc1SCC1=C(C(=O)O)N2C(=O)[C@@H](NC(=O)Cc3ccc(C4=NCCCN4)cc3)[C@H]2SC1 [TBBL-0000318] | > 100 µM | > 100 µM | > 100 µM | 60.5 µM | 0.8 µM | 24.5 µM | 2 µM | > 100 µM |
| N=C(N)SCc1ccccc1SC1=C(C(=O)O)N2C(=O)[C@@H](NC(=O)C(N)c3ccccc3)[C@H]2CC1 (stereo partly drawn) [TBBL-0000435] | > 100 µM | > 100 µM | > 100 µM | > 100 µM | 1.1 µM | 90.2 µM | 0.8 µM | > 100 µM |
| CC(=O)OC(C(=O)N[C@@H]1C(=O)N2C(C(=O)O)=C(CSc3cccc[n+]3[O-])CS[C@H]12)c1ccccc1 (stereo partly drawn) [TBBL-0000007] | 2.5 µM | 2.3 µM | > 100 µM | 85.1 µM | 2.8 µM | 2.3 µM | 2.4 µM | > 100 µM |
| CC(O)Cn1nnnc1SCC1=C(C(=O)O)N2C(=O)[C@@H](NC(=O)Cc3csc(=O)s3)[C@H]2SC1 (stereo partly drawn) [TBBL-0000325] | > 100 µM | > 100 µM | > 100 µM | 3.8 µM | 1.4 µM | 53.2 µM | 0.6 µM | > 100 µM |
| Nc1nnc(SCC2=C(C(=O)O)N3C(=O)[C@@H](NC(=O)CSc4cc(Cl)ccc4Cl)[C@H]3SC2)s1 [TBBL-0000467] | > 100 µM | > 100 µM | > 100 µM | > 100 µM | 1.5 µM | 52.2 µM | < 0.1 µM | > 100 µM |
